Assay results taken from patent EP4559908A1, “HETEROARYL DERIVATIVE COMPOUND AND USE THEREOF” (S2CBio Inc., priority 2022, dated 2024).

Target: T1, human ANO6 (variant 5) (Homo sapiens, UniProt Q4KMQ2)
T1 construct: expressed in transfected cells; host or cells: Fischer rat thyroid (FRT) cells
T1 sequence (Q4KMQ2 1-931 isoform Q4KMQ2-2): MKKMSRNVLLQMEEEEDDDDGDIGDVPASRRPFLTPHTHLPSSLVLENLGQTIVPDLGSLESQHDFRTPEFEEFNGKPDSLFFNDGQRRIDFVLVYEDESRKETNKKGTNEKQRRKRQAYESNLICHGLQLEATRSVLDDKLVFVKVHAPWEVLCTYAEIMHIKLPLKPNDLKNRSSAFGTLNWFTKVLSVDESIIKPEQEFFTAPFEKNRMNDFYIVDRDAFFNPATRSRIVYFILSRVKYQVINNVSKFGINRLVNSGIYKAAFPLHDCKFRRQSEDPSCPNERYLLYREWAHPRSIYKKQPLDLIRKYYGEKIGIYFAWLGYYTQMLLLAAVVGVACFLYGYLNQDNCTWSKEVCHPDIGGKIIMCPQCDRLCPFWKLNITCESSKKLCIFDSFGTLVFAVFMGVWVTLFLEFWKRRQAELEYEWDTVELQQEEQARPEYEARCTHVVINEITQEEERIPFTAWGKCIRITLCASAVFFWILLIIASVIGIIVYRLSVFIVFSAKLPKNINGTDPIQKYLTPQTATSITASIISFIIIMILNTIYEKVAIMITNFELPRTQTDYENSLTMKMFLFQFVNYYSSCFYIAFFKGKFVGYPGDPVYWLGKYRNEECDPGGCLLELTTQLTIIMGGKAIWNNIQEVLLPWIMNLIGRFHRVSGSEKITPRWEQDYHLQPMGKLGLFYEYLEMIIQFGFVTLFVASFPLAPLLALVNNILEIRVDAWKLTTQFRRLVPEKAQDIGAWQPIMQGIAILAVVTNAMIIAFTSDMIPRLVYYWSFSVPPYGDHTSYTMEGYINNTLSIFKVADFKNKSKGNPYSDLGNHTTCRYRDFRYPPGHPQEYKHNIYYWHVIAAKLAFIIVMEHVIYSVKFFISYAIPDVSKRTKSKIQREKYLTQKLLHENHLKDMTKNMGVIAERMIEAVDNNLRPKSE
Test: Lact C2 assay (measuring phosphatidylserine externalization scramblase function)
Format: cell-based
Details: FRT, FRT cells expressing human ANO6 (variant 5), ionomycin 10 µM, Lact-C2-GFP fluorescence, average of three tests; for inhibition at 0.05 µM: compound 50 nM, read-out: % Inhibition 50 nM; for inhibition at 0.1 µM: compound 100 nM; for inhibition at 1 µM: compound 1 µM, read-out: % Inhibition 1 µM
Procedure: Ionomycin (Alomonelab, cat. # I-700), DAPI (Sigma- Aldrich, cat. # D8417), paraformaldehyde (Biosesang, cat. #P2031), Lionheart FX automated fluorescence microscope (BioTek), Gen5™ software program (BioTek), and Image J analysis software program.
After the incubation, the cells were treated with compounds dissolved in DMSO to 1% v/v in each well at each concentration (50 nM, 100 nM, and 1 µM) and reacted for 10 minutes. Thereafter, each well was treated with ionomycin to a final concentration of 10 µM, allowed to react for 10 minutes, and then washed with 200 µL PBS. After washing, each well was treated with 50 µL of Lactadherin-C2 (Lact-C2)-GFP mixed in DMEM medium to a final concentration of 500 nM to stain phosphatidylserine, and cultured at 37°C for 10 minutes. After completion of the reaction, the cells were washed with 200 µL PBS, and fixed with 4% paraformaldehyde for 5 minutes at room temperature. For morphological analysis, DAPI solution was added, and the cells were incubated for 15 minutes, followed by washing with PBS. The fluorescence intensity of Lact-C2-GFP bound to phosphatidylserine on the cell surface was measured using an automated fluorescence microscope. For quantitative analysis of the fluorescence intensity of Lact-C2-GFP, BioTek Gen5™ software and Image J analysis software programs were used.
Phosphatidylserine externalization inhibitory activity (%) by the compound was calculated through the following analysis method. Specifically, the background fluorescence value was subtracted from the measured Lact-C2-GFP fluorescence value, and the fluorescence value of the ionomycin non-treatment group and the ionomycin-treatment group in the same row where each test group was located in a 96-well microplate were calculated. In order to calculate the inhibitory activity (%) by the compound, the relative inhibitory activity was calculated by setting the compound and ionomycin non-treatment group to 100% inhibitory activity and the ionomycin alone treatment group to 0% inhibitory activity.

Row | Structure (SMILES) | inhibition at 0.05 µM [%] | inhibition at 0.1 µM [%] | inhibition at 1 µM [%]
1 | FC(F)(F)c1ccc2nc(-c3cccc(Nc4ccc(-c5ccccc5)nn4)c3)[nH]c2c1 [Example 1, 6-phenyl-N-(3-(6-(trifluoromethyl)-1H-benzo[d]imidazol-2-yl)phenyl)pyridazin-3-amine] | 30 to 60 | > 60 | > 60
2 | c1ccc(-c2ccc(Nc3cccc(-c4nc5ccccc5[nH]4)c3)nn2)cc1 [Example 2, N-(3-(1H-benzo[d]imidazol-2-yl)phenyl)-6-phenylpyridazin-3-amine] |  | > 60 | > 60
3 | CC(C)(C)c1ccc2nc(-c3cccc(Nc4ccc(-c5ccccc5)nn4)c3)[nH]c2c1 [Example 3, N-[3-(6-tert-butyl-1H-benzo[d]imidazol-2-yl)phenyl]-6-phenylpyridazin-3-amine] | > 60 | > 60 | > 60
4 | Fc1cc2nc(-c3cccc(Nc4ccc(-c5ccccc5)nn4)c3)[nH]c2cc1Br [Example 4, N-[3-(6-bromo-5-fluoro-1H-benzo[d]imidazol-2-yl)phenyl]-6-phenylpyridazin-3-amine] | 30 to 60 | > 60 | > 60
5 | FC(F)(F)Oc1ccc2nc(-c3cccc(Nc4ccc(-c5ccccc5)nn4)c3)[nH]c2c1 [Example 6, 6-phenyl-N-(3-(6-(trifluoromethoxy)-1H-benzo[d]imidazol-2-yl)phenyl)pyridazin-3-amine] |  | > 60 | > 60
6 | Clc1cc2nc(-c3cccc(Nc4ccc(-c5ccccc5)nn4)c3)[nH]c2cc1Cl [Example 7, N-(3-(5,6-dichloro-1H-benzo[d]imidazol-2-yl)phenyl)-6-phenylpyridazin-3-amine] | > 60 | > 60 | > 60
7 | FC(F)(F)c1cc2nc(-c3cccc(Nc4ccc(-c5ccccc5)nn4)c3)[nH]c2cc1Cl [Example 8, N-{3-[6-chloro-5-(trifluoromethyl)-1H-benzo[d]imidazol-2-yl]phenyl}-6-phenylpyridazin-3-amine] | > 60 | > 60 | > 60
8 | FC(F)(F)c1cc2nc(-c3cccc(Nc4ccc(-c5ccccc5)nn4)c3)[nH]c2cc1Br [Example 9, N-{3-[6-bromo-5-(trifluoromethyl)-1H-benzo[d]imidazol-2-yl]phenyl}-6-phenylpyridazin-3-amine] | > 60 | > 60 | > 60
9 | FC(F)(F)Oc1cc2nc(-c3cccc(Nc4ccc(-c5ccccc5)nn4)c3)[nH]c2cc1Cl [Example 10, N-{3-[6-chloro-5-(trifluoromethoxy)-1H-benzo[d]imidazol-2-yl]phenyl}-6-phenylpyridazin-3-amine] | > 60 | > 60 | > 60
10 | Fc1cc(Br)c2[nH]c(-c3cccc(Nc4ccc(-c5ccccc5)nn4)c3)nc2c1 [Example 11, N-(3-(7-bromo-5-fluoro-1H-benzo[d]imidazol-2-yl)phenyl)-6-phenylpyridazin-3-amine] |  | 30 to 60 | > 60
11 | Clc1ccc2nc(-c3cccc(Nc4ccc(-c5ccccc5)nn4)c3)[nH]c2c1 [Example 12, N-[3-(6-chloro-1H-benzo[d]imidazol-2-yl)phenyl]-6-phenylpyridazin-3-amine] | > 60 | > 60 | > 60
12 | Clc1cc2nc(-c3cccc(Nc4ccc(-c5ccccc5)cn4)c3)[nH]c2cc1Cl [Example 13, N-[3-(5,6-dichloro-1H-benzo[d]imidazol-2-yl)phenyl]-5-phenylpyridin-2-amine] | > 60 | > 60 | > 60
13 | FC(F)(F)c1ccc2nc(-c3cccc(Nc4ncc(-c5ccccc5)cn4)c3)[nH]c2c1 [Example 14, 5-phenyl-N-(3-(6-(trifluoromethyl)-1H-benzo[d]imidazol-2-yl)phenyl)pyrimidin-2-amine] | > 60 | > 60 | > 60
14 | FC(F)(F)c1ccc2nc(-c3cccc(Nc4ccc(-c5ccccc5)cn4)c3)[nH]c2c1 [Example 15, 5-Phenyl-N-{3-[6-(trifluoromethyl)-1H-benzo[d]imidazol-2-yl]phenyl}pyridin-2-amine] | > 60 | > 60 | > 60
15 | Fc1cccc(-c2cnc(Nc3cccc(-c4nc5ccc(C(F)(F)F)cc5[nH]4)c3)nc2)c1 [Example 17, 5-(3-Fluorophenyl)-N-{3-[6-(trifluoromethyl)-1H-benzo[d]imidazol-2-yl]phenyl}pyrimidin-2-amine] | > 60 | > 60 | > 60
16 | Fc1cccc(-c2ccc(Nc3cccc(-c4nc5ccc(C(F)(F)F)cc5[nH]4)c3)nc2)c1 [Example 18, 5-(3-fluorophenyl)-N-(3-(6-(trifluoromethyl)-1H-benzo[d]imidazol-2-yl)phenyl)pyridin-2-amine] | > 60 | > 60 | > 60
17 | c1ccc(-c2ccc(Nc3cccc(-c4nc5ccccc5[nH]4)c3)cc2)cc1 [Example 19, N-[3-(1H-benzo[d]imidazol-2-yl)phenyl]-[1,1'-biphenyl]-4-amine] | 30 to 60 | > 60 | > 60
18 | c1ccc(-c2ccc(Nc3cccc(-c4nc5ccccc5[nH]4)c3)cc2)nc1 [Example 20, 3-(1H-benzo[d]imidazol-2-yl)-N-(4-(pyridin-2-yl)phenyl)aniline] | > 60 | > 60 | > 60
19 | c1cc(Nc2ccc(-c3cccnn3)cc2)cc(-c2nc3ccccc3[nH]2)c1 [Example 21, 3-(1H-benzo[d]imidazol-2-yl)-N-(4-(pyridazin-3-yl)phenyl)aniline] | > 60 | > 60 | > 60
20 | c1cc(Nc2ccc(-c3ccncn3)cc2)cc(-c2nc3ccccc3[nH]2)c1 [Example 22, N-[3-(1H-benzo[d]imidazol-2-yl)phenyl]-4-(pyrimidin-4-yl)aniline] | > 60 | > 60 | > 60
21 | FC(F)(F)c1ccc2nc(-c3cccc(Nc4ccc(-c5cccnn5)cc4)c3)[nH]c2c1 [Example 23, N-(4-(pyridazin-3-yl)phenyl)-3-(6-(trifluoromethyl)-1H-benzo[d]imidazol-2-yl)aniline] | > 60 | > 60 | > 60
22 | FC(F)(F)c1ccc2nc(-c3cccc(Nc4ccc(-c5ccncn5)cc4)c3)[nH]c2c1 [Example 24, N-(4-(pyrimidin-4-yl)phenyl)-3-(6-(trifluoromethyl)-1H-benzo[d]imidazol-2-yl)aniline] | > 60 | > 60 | > 60
23 | Fc1ccc2nc(-c3cccc(Nc4ccc(-c5cccnn5)cc4)c3)[nH]c2c1 [Example 25, 3-(6-fluoro-1H-benzo[d]imidazol-2-yl)-N-(4-(pyridazin-3-yl)phenyl)aniline] | > 60 | > 60 | > 60
